Assay results reported in ChEMBL document CHEMBL3774310, “Discovery of antitumor anthra[2,3-b]furan-3-carboxamides: Optimization of synthesis and evaluation of antitumor properties” (Eur J Med Chem, 2016).
pIC50: −log10 of the molar value. Active and inactive are the calls of the source. The calls are words filed in the database; no cut-off is given here.

How the values were obtained:
[1] = Antiproliferative activity against human K562/4 cells after 72 hrs by MTT assay; details: K562/4, 72 h
[2] = target: DNA topoisomerase 2-alpha (Homo sapiens) (UniProt P11388); test: Inhibition of human topoisomerase 2-alpha assessed as attenuation of enzyme-mediated relaxation of supercoiled pBR322 DNA at 40 uM after 30 mins by agarose gel electrophoresis
[3] = Toxicity in ip dosed DBA2/BDF1 mouse transplanted with mouse P388 cells dosed daily for 5 days; assay type: organism-based; details: in vivo
[4] = tested on: HCT-116; test: Induction of apoptosis in p53 knockout human HCT116 cells assessed as necrotic cells at 1 uM after 48 hrs by Annexin V-FITC/propidium iodide staining based assay (reference value: 2 +/- 1%); assay type: functional
[5] = tested on: HCT-116; test: Induction of apoptosis in p53 knockout human HCT116 cells assessed as late apoptotic cells at 1 uM after 48 hrs by Annexin V-FITC/propidium iodide staining based assay (reference value: 2 +/- 1%); assay type: functional
[6] = tested on: Calf thymus DNA; test: Binding affinity to calf thymus DNA assessed as bathochromic shift at 5 uM by spectrophotometric analysis; assay type: nucleic-acid assay; details: Bos taurus
[7] = tested on: HCT-116; test: Induction of apoptosis in human HCT116 cells assessed as necrotic cells at 1 uM after 24 hrs by Annexin V-FITC/propidium iodide staining based assay (reference value: 2 +/- 1%); assay type: functional
[8] = Cell cycle arrest in human HCT116 cells assessed as accumulation in G2/M phase at 1 uM after 24 hrs; assay type: functional, cell-based; details: HCT-116
[9] = tested on: HCT-116; test: Induction of apoptosis in human HCT116 cells assessed as viable cells at 1 uM after 24 hrs by Annexin V-FITC/propidium iodide staining based assay (reference value: 95 +/- 2%); assay type: functional
[10] = tested on: HCT-116; test: Induction of apoptosis in p53 knockout human HCT116 cells assessed as viable cells at 1 uM after 48 hrs by Annexin V-FITC/propidium iodide staining based assay (reference value: 93 +/- 3%); assay type: functional
[11] = tested on: HCT-116; test: Induction of apoptosis in human HCT116 cells assessed as necrotic cells at 1 uM after 48 hrs by Annexin V-FITC/propidium iodide staining based assay (reference value: 2 +/- 1%); assay type: functional
[12] = tested on: HCT-116; test: Induction of apoptosis in p53 knockout human HCT116 cells assessed as early apoptotic cells at 1 uM after 48 hrs by Annexin V-FITC/propidium iodide staining based assay (reference value: 2 +/- 1%); assay type: functional
[13] = tested on: HCT-116; test: Induction of apoptosis in p53 knockout human HCT116 cells assessed as early apoptotic cells at 1 uM after 24 hrs by Annexin V-FITC/propidium iodide staining based assay (reference value: 2 +/- 1%); assay type: functional
[14] = target: T1, DNA topoisomerase 1 (Homo sapiens) (UniProt P11387); test: Poisoning activity at topoisomerase 1 (unknown origin) using 3'-[32P]dGTP labelled 117bp oligonucleotide assessed as induction of DNA cleavage incubated for 20 mins by SDS-PAGE analysis
T1 sequence (whole entry): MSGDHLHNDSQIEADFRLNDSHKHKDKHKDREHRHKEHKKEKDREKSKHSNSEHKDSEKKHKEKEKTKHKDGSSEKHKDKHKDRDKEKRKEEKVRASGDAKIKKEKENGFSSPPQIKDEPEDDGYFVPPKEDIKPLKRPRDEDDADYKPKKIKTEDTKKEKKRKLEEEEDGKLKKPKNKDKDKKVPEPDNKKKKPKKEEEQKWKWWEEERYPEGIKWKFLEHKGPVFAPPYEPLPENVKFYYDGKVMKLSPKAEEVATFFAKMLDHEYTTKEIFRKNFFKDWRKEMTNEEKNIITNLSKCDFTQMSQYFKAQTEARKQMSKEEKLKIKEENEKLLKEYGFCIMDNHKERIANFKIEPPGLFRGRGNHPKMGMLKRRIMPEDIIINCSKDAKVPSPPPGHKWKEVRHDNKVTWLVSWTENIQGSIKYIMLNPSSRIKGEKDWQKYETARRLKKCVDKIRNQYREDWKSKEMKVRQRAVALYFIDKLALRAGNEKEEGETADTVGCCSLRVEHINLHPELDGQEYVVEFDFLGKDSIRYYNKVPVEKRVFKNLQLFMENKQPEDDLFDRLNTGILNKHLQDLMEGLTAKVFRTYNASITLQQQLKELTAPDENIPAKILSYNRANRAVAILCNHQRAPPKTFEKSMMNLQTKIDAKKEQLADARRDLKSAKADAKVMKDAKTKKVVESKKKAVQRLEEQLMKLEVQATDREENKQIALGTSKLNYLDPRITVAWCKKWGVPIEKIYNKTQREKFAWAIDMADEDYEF

[15] = Cell cycle arrest in p53 knockout human HCT116 cells assessed as accumulation in sub G1 phase at 1 uM after 24 to 48 hrs relative to control; assay type: functional, cell-based; details: HCT-116
[16] = Cell cycle arrest in human HCT116 cells assessed as accumulation in sub G1 phase at 1 uM after 24 to 48 hrs relative to control; assay type: functional, cell-based; details: HCT-116
[17] = Cell cycle arrest in human HCT116 cells assessed as decrease in G1 phase at 1 uM after 24 hrs; assay type: functional, cell-based; details: HCT-116
[18] = Cell cycle arrest in p53 knockout human HCT116 cells assessed as decrease in S phase at 1 uM after 24 hrs; assay type: functional, cell-based; details: HCT-116
[19] = tested on: HCT-116; test: Induction of apoptosis in human HCT116 cells assessed as early apoptotic cells at 1 uM after 48 hrs by Annexin V-FITC/propidium iodide staining based assay (reference value: 2 +/- 1%); assay type: functional
[20] = tested on: HCT-116; test: Induction of apoptosis in human HCT116 cells assessed as late apoptotic cells at 1 uM after 48 hrs by Annexin V-FITC/propidium iodide staining based assay (reference value: 1 +/- 1%); assay type: functional
[21] = tested on: HCT-116; test: Induction of apoptosis in p53 knockout human HCT116 cells assessed as necrotic cells at 1 uM after 24 hrs by Annexin V-FITC/propidium iodide staining based assay (reference value: 2 +/- 1%); assay type: functional
[22] = tested on: HCT-116; test: Induction of apoptosis in p53 knockout human HCT116 cells assessed as viable cells at 1 uM after 24 hrs by Annexin V-FITC/propidium iodide staining based assay (reference value: 93 +/- 3%); assay type: functional
[23] = Cell cycle arrest in p53 knockout human HCT116 cells assessed as decrease in G1 phase at 1 uM after 24 hrs; assay type: functional, cell-based; details: HCT-116
[24] = tested on: P388; test: Antitumor activity against mouse P388 cells transplanted in DBA2/BDF1 mouse assessed as mean life span at 50 mg/kg, ip dosed daily for 5 days (reference value: 9.7 +/- 1.1 day); assay type: functional
[25] = tested on: HCT-116; test: Induction of apoptosis in human HCT116 cells assessed as viable cells at 1 uM after 48 hrs by Annexin V-FITC/propidium iodide staining based assay (reference value: 95 +/- 2%); assay type: functional
[26] = tested on: PBL; test: Cytotoxicity against human PBL assessed as reduction in cell viability after 72 hrs by MTT assay; assay type: cell-based
[27] = tested on: HCT-116; test: Induction of apoptosis in human HCT116 cells assessed as late apoptotic cells at 1 uM after 24 hrs by Annexin V-FITC/propidium iodide staining based assay (reference value: 1 +/- 1%); assay type: functional
[28] = Cell cycle arrest in human HCT116 cells assessed as decrease in S phase at 1 uM after 24 hrs; assay type: functional, cell-based; details: HCT-116
[29] = HCT-116, 24 h, read-out: Activity
[30] = HCT-116, 48 h, read-out: Activity

Sequence of DNA topoisomerase 2-alpha (Homo sapiens) (P11388 whole entry): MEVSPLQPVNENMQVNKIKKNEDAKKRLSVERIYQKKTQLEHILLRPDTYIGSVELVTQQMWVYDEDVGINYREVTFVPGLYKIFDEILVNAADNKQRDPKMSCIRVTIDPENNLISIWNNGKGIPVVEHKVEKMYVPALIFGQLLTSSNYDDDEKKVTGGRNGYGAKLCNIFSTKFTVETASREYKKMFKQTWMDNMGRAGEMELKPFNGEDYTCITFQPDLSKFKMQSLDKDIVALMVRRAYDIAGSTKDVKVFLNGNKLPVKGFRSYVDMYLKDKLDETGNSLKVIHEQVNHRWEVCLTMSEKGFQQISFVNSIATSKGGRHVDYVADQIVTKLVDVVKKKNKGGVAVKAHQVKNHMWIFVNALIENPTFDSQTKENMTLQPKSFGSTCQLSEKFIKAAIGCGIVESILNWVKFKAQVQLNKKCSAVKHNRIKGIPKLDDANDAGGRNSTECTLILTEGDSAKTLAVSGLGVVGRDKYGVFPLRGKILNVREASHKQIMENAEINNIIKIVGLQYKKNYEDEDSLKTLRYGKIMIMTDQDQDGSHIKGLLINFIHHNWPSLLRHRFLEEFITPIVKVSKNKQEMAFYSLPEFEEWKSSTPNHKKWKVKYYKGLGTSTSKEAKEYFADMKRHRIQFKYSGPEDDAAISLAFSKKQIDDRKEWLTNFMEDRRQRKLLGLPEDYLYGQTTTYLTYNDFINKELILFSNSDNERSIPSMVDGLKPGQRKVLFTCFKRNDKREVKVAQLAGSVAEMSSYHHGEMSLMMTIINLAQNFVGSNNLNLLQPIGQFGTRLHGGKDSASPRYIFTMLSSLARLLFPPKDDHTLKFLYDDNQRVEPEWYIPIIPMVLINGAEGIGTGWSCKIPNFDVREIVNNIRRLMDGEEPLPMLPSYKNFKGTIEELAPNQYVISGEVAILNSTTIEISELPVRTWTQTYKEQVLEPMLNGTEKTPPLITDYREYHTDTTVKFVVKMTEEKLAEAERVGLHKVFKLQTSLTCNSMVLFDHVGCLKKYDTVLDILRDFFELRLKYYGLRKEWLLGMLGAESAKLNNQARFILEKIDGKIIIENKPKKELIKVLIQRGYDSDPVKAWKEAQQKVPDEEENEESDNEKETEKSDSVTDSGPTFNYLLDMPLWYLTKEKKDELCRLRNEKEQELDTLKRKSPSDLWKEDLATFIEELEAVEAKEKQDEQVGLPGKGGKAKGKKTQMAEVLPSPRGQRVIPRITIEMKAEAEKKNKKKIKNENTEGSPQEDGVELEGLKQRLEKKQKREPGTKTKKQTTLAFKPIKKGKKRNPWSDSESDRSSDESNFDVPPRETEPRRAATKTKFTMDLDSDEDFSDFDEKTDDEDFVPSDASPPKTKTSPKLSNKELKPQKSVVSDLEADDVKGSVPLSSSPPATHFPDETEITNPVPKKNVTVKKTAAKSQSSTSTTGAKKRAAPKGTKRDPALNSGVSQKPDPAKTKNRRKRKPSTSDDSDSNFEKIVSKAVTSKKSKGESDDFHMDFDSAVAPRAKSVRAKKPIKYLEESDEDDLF

## CS(=O)(=O)O.Cc1oc2c(O)c3c(c(O)c2c1C(=O)N1CC[C@H](N)C1)C(=O)c1ccccc1C3=O
[1]
  pIC50: 5.85
[2]
  Activity: Active
[3]
  MTD at 120 h: 30 mg/kg
[4]
  Activity: 33%
[5]
  Activity: 14%
[6]
  Activity: 9 nm
[7]
  Activity: 10%
[8]
  Activity: Active
[9]; [29]
  viability at 1 µM: 58%
[10]; [30]
  viability at 1 µM: 7%
[11]
  Activity: 30%
[12]
  Activity: 46%
[13]
  Activity: 17%
[14]
  Activity: inactive
[15]
  Activity: > 70%
[16]
  Activity: > 70%
[17]
  Activity: Active
[18]
  Activity: Active
[19]
  Activity: 45%
[20]
  Activity: 13%
[21]
  Activity: 11%
[22]; [29]
  viability at 1 µM: 54%
[23]
  Activity: Active
[24]
  Activity: 6.5 days
[25]; [30]
  viability at 1 µM: 12%
[26]
  Activity: Non-toxic
[27]
  Activity: 12%
[28]
  Activity: Active

## CS(=O)(=O)O.Cc1oc2c(O)c3c(c(O)c2c1C(=O)N1CC[C@@H](N)C1)C(=O)c1ccccc1C3=O
[1]
  pIC50: 5.89
[2]
  Activity: Active
[3]
  MTD at 120 h: 50 mg/kg
[4]
  Activity: Active
[5]
  Activity: Active
[6]
  Activity: 9 nm
[7]
  Activity: Active
[8]
  Activity: Active
[9]
  Activity: Active
[10]
  Activity: Active
[11]
  Activity: Active
[12]
  Activity: Active
[13]
  Activity: Active
[14]
  Activity: inactive
[15]
  Activity: > 70%
[16]
  Activity: > 70%
[17]
  Activity: Active
[18]
  Activity: Active
[19]
  Activity: Active
[20]
  Activity: Active
[21]
  Activity: Active
[22]
  Activity: Active
[23]
  Activity: Active
[24]
  Activity: 17.3 days
[25]
  Activity: Active
[26]
  Activity: Non-toxic
[27]
  Activity: Active
[28]
  Activity: Active
